Data taken from PubChem BioAssay (NCI).
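1) Cells in 96-well plates. 2) Compound, 48 h, 5 concentrations. 3) Linear interpolation between surrounding doses. 4) Unreached endpoint = highest concentration. The concentration for 50% growth inhibition is given as GI50. Definition used: TGI = concentration required for complete inhibition of growth.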

Legend:
Experiment in all cases: growth of human tumour cells (NCI), 48 h
786-0 renal = tested on: 786-0 renal
A498 renal = tested on: A498 renal
A549 NSCLC = tested on: A549 NSCLC
ACHN renal = tested on: ACHN renal
BT-549 breast = tested on: BT-549 breast
CAKI-1 renal = tested on: CAKI-1 renal
CCRF-CEM leukemia = tested on: CCRF-CEM leukemia
COLO 205 colon = tested on: COLO 205 colon
DU-145 prostate = tested on: DU-145 prostate
EKVX NSCLC = tested on: EKVX NSCLC
HCC-2998 colon = tested on: HCC-2998 colon
HCT-116 colon = tested on: HCT-116 colon
HCT-15 colon = tested on: HCT-15 colon
HL-60(TB) leukemia = tested on: HL-60(TB) leukemia
HOP-62 NSCLC = tested on: HOP-62 NSCLC
HOP-92 NSCLC = tested on: HOP-92 NSCLC
HS 578T breast = tested on: HS 578T breast
HT29 colon = tested on: HT29 colon
IGROV1 ovarian = tested on: IGROV1 ovarian
K-562 leukemia = tested on: K-562 leukemia
KM12 colon = tested on: KM12 colon
M14 melanoma = tested on: M14 melanoma
MALME-3M melanoma = tested on: MALME-3M melanoma
MCF7 breast = tested on: MCF7 breast
MDA-MB-231 breast = tested on: MDA-MB-231 breast
MDA-MB-435 = tested on: MDA-MB-435
MOLT-4 leukemia = tested on: MOLT-4 leukemia
NCI-H226 lung = tested on: NCI-H226 lung
NCI-H23 lung = tested on: NCI-H23 lung
NCI-H460 lung = tested on: NCI-H460 lung
NCI-H522 lung = tested on: NCI-H522 lung
NCI/ADR-RES ovarian = tested on: NCI/ADR-RES ovarian
OVCAR-3 ovarian = tested on: OVCAR-3 ovarian
OVCAR-4 ovarian = tested on: OVCAR-4 ovarian
OVCAR-5 ovarian = tested on: OVCAR-5 ovarian
OVCAR-8 ovarian = tested on: OVCAR-8 ovarian
PC-3 prostate = tested on: PC-3 prostate
RPMI-8226 leukemia = tested on: RPMI-8226 leukemia
RXF 393 renal = tested on: RXF 393 renal
SF-268 CNS = tested on: SF-268 CNS
SF-295 CNS = tested on: SF-295 CNS
SF-539 CNS = tested on: SF-539 CNS
SK-MEL-28 melanoma = tested on: SK-MEL-28 melanoma
SK-MEL-5 melanoma = tested on: SK-MEL-5 melanoma
SNB-19 CNS = tested on: SNB-19 CNS
SNB-75 CNS = tested on: SNB-75 CNS
SR leukemia = tested on: SR leukemia
SW-620 colon = tested on: SW-620 colon
T-47D breast = tested on: T-47D breast
TK-10 renal = tested on: TK-10 renal
U251 CNS = tested on: U251 CNS
UACC-257 melanoma = tested on: UACC-257 melanoma
UACC-62 melanoma = tested on: UACC-62 melanoma
UO-31 renal = tested on: UO-31 renal

## CCCCCCCC(=O)OCCCC1[C@]2(C)CC[C@@]3(C)C([C@H](C)CCC=C(C)C)CC[C@]3(C)C2CC[C@]12OC2(C)C (stereo partly drawn)
786-0 renal
  GI50: > 100 µM
  TGI: > 100 µM
A498 renal
  GI50: > 100 µM
  TGI: > 100 µM
A549 NSCLC
  GI50: 32.4 µM
  TGI: > 100 µM
ACHN renal
  GI50: 22.9 µM
  TGI: 45.4 µM
BT-549 breast
  GI50: 88.6 µM
  TGI: > 100 µM
CAKI-1 renal
  GI50: 23.8 µM
  TGI: 48.9 µM
CCRF-CEM leukemia
  GI50: 28.4 µM
  TGI: 69.1 µM
COLO 205 colon
  GI50: 39.7 µM
  TGI: > 100 µM
DU-145 prostate
  GI50: 38.1 µM
  TGI: > 100 µM
EKVX NSCLC
  GI50: 49.7 µM
  TGI: > 100 µM
HCC-2998 colon
  GI50: 18.6 µM
  TGI: 47.5 µM
HCT-116 colon
  GI50: 52.2 µM
  TGI: > 100 µM
HCT-15 colon
  GI50: 29.4 µM
  TGI: > 100 µM
HL-60(TB) leukemia
  GI50: 28.5 µM
  TGI: 67.4 µM
HOP-62 NSCLC
  GI50: > 100 µM
  TGI: > 100 µM
HOP-92 NSCLC
  GI50: 28.2 µM
  TGI: > 100 µM
HS 578T breast
  GI50: 40.3 µM
  TGI: > 100 µM
HT29 colon
  GI50: 42.3 µM
  TGI: > 100 µM
IGROV1 ovarian
  GI50: 34.8 µM
  TGI: > 100 µM
K-562 leukemia
  GI50: 44.1 µM
  TGI: > 100 µM
KM12 colon
  GI50: 29.6 µM
  TGI: 84.1 µM
M14 melanoma
  GI50: > 100 µM
  TGI: > 100 µM
MALME-3M melanoma
  GI50: > 100 µM
  TGI: > 100 µM
MCF7 breast
  GI50: 34.1 µM
  TGI: > 100 µM
MDA-MB-231 breast
  GI50: 10.8 µM
  TGI: 34.6 µM
MDA-MB-435
  GI50: 36.6 µM
  TGI: > 100 µM
MOLT-4 leukemia
  GI50: 22.1 µM
  TGI: 57.1 µM
NCI-H226 lung
  GI50: 22.8 µM
  TGI: 92.3 µM
NCI-H23 lung
  GI50: 23.1 µM
  TGI: 61.7 µM
NCI-H460 lung
  GI50: 26.2 µM
  TGI: 71 µM
NCI-H522 lung
  GI50: 35.1 µM
  TGI: > 100 µM
NCI/ADR-RES ovarian
  GI50: 35 µM
  TGI: > 100 µM
OVCAR-3 ovarian
  GI50: 24.9 µM
  TGI: 65.2 µM
OVCAR-4 ovarian
  GI50: 78.9 µM
  TGI: > 100 µM
OVCAR-5 ovarian
  GI50: > 100 µM
  TGI: > 100 µM
OVCAR-8 ovarian
  GI50: 64 µM
  TGI: > 100 µM
PC-3 prostate
  GI50: 30.2 µM
  TGI: > 100 µM
RPMI-8226 leukemia
  GI50: 36.4 µM
  TGI: > 100 µM
RXF 393 renal
  GI50: 21.3 µM
  TGI: 49.3 µM
SF-268 CNS
  GI50: 27.2 µM
  TGI: 81.8 µM
SF-295 CNS
  GI50: 31.2 µM
  TGI: > 100 µM
SF-539 CNS
  GI50: 26.5 µM
  TGI: 59.5 µM
SK-MEL-28 melanoma
  GI50: 42.4 µM
  TGI: > 100 µM
SK-MEL-5 melanoma
  GI50: 33.9 µM
  TGI: > 100 µM
SNB-19 CNS
  GI50: 34.5 µM
  TGI: 97.6 µM
SNB-75 CNS
  GI50: > 100 µM
  TGI: > 100 µM
SR leukemia
  GI50: 22.6 µM
  TGI: 45.7 µM
SW-620 colon
  GI50: 40.4 µM
  TGI: > 100 µM
T-47D breast
  GI50: 35.7 µM
  TGI: > 100 µM
TK-10 renal
  GI50: 30.6 µM
  TGI: > 100 µM
U251 CNS
  GI50: 27.7 µM
  TGI: 93.3 µM
UACC-257 melanoma
  GI50: 68.2 µM
  TGI: > 100 µM
UACC-62 melanoma
  GI50: 17.6 µM
  TGI: 78 µM
UO-31 renal
  GI50: 31.9 µM
  TGI: > 100 µM
